Numbering of substitutions follows the chain as printed.
Key:
[1] = molecular target: T1, Androgen Receptor, VCaP (AR wild type and amplified) (Homo sapiens, UniProt P10275); assay: Androgen Receptor Degradation-Imaging Assay, VCaP cell line; assay type: cell-based; conditions: 16 hours treatment, maximum observed degradation
T1 construct: endogenous in cells; host or cells: VCaP
T1 sequence (P10275 1-920): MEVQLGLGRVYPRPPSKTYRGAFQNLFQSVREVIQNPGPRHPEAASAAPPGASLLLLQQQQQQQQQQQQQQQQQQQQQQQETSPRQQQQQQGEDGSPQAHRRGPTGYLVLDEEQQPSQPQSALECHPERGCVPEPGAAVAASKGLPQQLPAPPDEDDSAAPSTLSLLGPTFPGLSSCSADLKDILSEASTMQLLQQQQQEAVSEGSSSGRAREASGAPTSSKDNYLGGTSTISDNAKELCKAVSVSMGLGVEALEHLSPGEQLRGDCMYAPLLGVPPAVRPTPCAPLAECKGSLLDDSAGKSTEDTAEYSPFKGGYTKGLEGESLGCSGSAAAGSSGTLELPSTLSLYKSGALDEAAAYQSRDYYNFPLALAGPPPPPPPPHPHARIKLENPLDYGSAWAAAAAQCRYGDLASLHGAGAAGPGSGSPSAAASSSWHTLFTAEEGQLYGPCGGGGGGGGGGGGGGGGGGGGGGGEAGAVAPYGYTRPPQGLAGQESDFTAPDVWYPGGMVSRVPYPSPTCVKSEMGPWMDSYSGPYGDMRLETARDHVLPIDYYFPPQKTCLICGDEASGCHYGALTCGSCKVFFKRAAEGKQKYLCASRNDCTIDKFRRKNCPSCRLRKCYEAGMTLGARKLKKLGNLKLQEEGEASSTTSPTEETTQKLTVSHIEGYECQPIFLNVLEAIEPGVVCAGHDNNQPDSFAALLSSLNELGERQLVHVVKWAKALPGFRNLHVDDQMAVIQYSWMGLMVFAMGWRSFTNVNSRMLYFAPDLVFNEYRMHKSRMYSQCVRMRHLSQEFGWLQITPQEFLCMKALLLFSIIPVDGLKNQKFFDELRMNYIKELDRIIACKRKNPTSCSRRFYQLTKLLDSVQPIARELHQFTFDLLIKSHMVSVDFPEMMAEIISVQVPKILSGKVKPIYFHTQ
Procedure: (§1) Degradation of Androgen Receptor (AR) protein in human prostate cancer cell lines (MDA-PCa-2b (AR T878A/L702H), LNCaP (AR T878A), VCaP (AR wild type and amplified) 22RV1 (AR H875Y) and PC3 (AR negative control)) treated with AR PROTACs was quantified using immunofluorescence. Prostate cancer cells were plated (MDA-PCa-2b, and VCaP 16,000 cells/well; LNCaP and 22RV1 32,000 cells/well, and PC3 8,000 cells/well) in an optical bottom 96-well cell culture plate and allowed to attach overnight. The prostate cancer cell lines were treated for 16 hours with a 10-point 3-fold dilution series (dose range=0.02 nM to 333 nM). PC3 is included as an AR negative control and not treated with compound. Cells are fixed and permeabilized with 4% formaldehyde, blocked with 10% goat serum in immunofluorescence (IF) buffer (130 mM NaCl, 7 mM Na2HPO4, 3.5 mM NaH2PO4, 7.7 mM NaN3, 0.1% BSA, 0.2% Triton X, 0.05% Tween 20) prior to overnight incubation with rabbit antibody specific for C terminus of AR (commercially available from RevMaB Biosciences). Following washes with IF buffer, cells were incubated with fluorescent secondary antibody (Goat anti-rabbit Alexa 647; commercially available from Invitrogen) and Hoechst nuclear stain (commercially available from Themo Scientific) prior to quantification of nuclear AR levels via Opera Phenix high-content fluorescent imager using a 40× water objective. Image analysis was performed with Harmony software.
(§2) The averaged nuclear Alexa 647 median fluorescence intensity (MFI) of PC3 cells is subtracted from the nuclear Alexa 647 MFI of PROTAC treated and DMSO control treated cells. % AR remaining is calculated for PROTAC treatments as a percent of the DMSO control (MFI PROTAC treated/MFI DMSO control treated)*100). DC50 and the Dmax values, were obtained from these normalised values fitted with a 4-parameter sigmoidal response curve (Xlfit software). The DC50 is the interpolated concentration of PROTAC corresponding to 50% of the protein being degraded, and the Dmax parameter is the maximum experimentally observed degradation.

[2] = molecular target: T2, Androgen Receptor, MDA-PCa-2b (AR T878A/L702H) (Homo sapiens, UniProt P10275, L702H/T878A); assay: Androgen Receptor Degradation-Imaging Assay, MDA-PCa-2b cell line; assay type: cell-based; conditions: 16 hours treatment, maximum observed degradation
T2 construct: host or cells: MDA-PCa-2b
T2 sequence (P10275 1-920 L702H/T878A): T1 sequence (P10275 1-920) with L702H, T878A
Procedure: as §1, §2

| SMILES | Dmax [1] | Dmax [2] |
| --- | --- | --- |
| CC1(C)[C@H](NC(=O)c2ccc(N3CCC(CN4CCC(n5ncc6c(N7CCC(=O)NC7=O)cccc65)CC4)CC3)c(F)c2)C(C)(C)[C@H]1Oc1ccc(C#N)c2ncccc12 [Example 6, N-((1r,3r)-3-((8-Cyanoquinolin-5-yl)oxy)-2,2,4,4-tetramethylcyclobutyl)-4-(4-((4-(4-(2,4-dioxotetrahydropyrimidin-1(2H)-yl)-1H-indazol-1-yl)piperidin-1-yl)methyl)piperidin-1-yl)-3-fluorobenzamide] | ≥ 80% | ≥ 80% |
| CC1(C)[C@H](NC(=O)c2ccc(N3CCC(CN4CCC(n5ccc6c(N7CCC(=O)NC7=O)c(F)ccc65)CC4)CC3)c(F)c2)C(C)(C)[C@H]1Oc1ccc(C#N)c2ncccc12 [Example 51, N-((1r,3r)-3-((8-Cyanoquinolin-5-yl)oxy)-2,2,4,4-tetramethylcyclobutyl)-4-(4-((4-(4-(2,4-dioxotetrahydropyrimidin-1(2H)-yl)-5-fluoro-1H-indol-1-yl)piperidin-1-yl)methyl)piperidin-1-yl)-3-fluorobenzamide] | ≥ 80% | ≥ 80% |
| COc1cc(O[C@H]2C(C)(C)[C@H](NC(=O)c3ccc(N4CCC(CN5CCC(n6ncc7c(N8CCC(=O)NC8=O)nccc76)CC5)CC4)c(F)c3)C2(C)C)ccc1C#N [Example 20, N-((1r,3r)-3-(4-Cyano-3-methoxyphenoxy)-2,2,4,4-tetramethylcyclobutyl)-4-(4-((4-(4-(2,4-dioxotetrahydropyrimidin-1(2H)-yl)-1H-pyrazolo[4,3-c]pyridin-1-yl)piperidin-1-yl)methyl)piperidin-1-yl)-3-fluorobenzamide] | ≥ 80% | ≥ 80% |
| CC1(C)[C@H](NC(=O)c2ccc(N3CCC(CN4CCC(n5ccc6c(N7CCC(=O)NC7=O)cccc65)CC4)CC3)cc2)C(C)(C)[C@H]1Oc1ccc(C#N)c2ncccc12 [Example 43, N-((1r,3r)-3-((8-Cyanoquinolin-5-yl)oxy)-2,2,4,4-tetramethylcyclobutyl)-4-(4-((4-(4-(2,4-dioxotetrahydropyrimidin-1(2H)-yl)-1H-indol-1-yl)piperidin-1-yl)methyl)piperidin-1-yl)benzamide] | ≥ 80% | ≥ 80% |
| COc1c(C#N)ccc(O[C@H]2C(C)(C)[C@H](NC(=O)c3ccc(N4CCC(CN5CCC(n6ncc7c(N8CCC(=O)NC8=O)cccc76)CC5)CC4)c(F)c3)C2(C)C)c1C [Example 5, N-((1r,3r)-3-(4-Cyano-3-methoxy-2-methylphenoxy)-2,2,4,4-tetramethylcyclobutyl)-4-(4-((4-(4-(2,4-dioxotetrahydropyrimidin-1(2H)-yl)-1H-indazol-1-yl)piperidin-1-yl)methyl)piperidin-1-yl)-3-fluorobenzamide] | ≥ 80% | ≥ 80% |
| CC1(C)[C@H](NC(=O)c2ccc(N3CCC(CN4CCC(n5ccc6c(N7CCC(=O)NC7=O)cc(F)cc65)CC4)CC3)c(F)c2)C(C)(C)[C@H]1Oc1ccc(C#N)c2ncccc12 [Example 32, N-((1r,3r)-3-((8-Cyanoquinolin-5-yl)oxy)-2,2,4,4-tetramethylcyclobutyl)-4-(4-((4-(4-(2,4-dioxotetrahydropyrimidin-1(2H)-yl)-6-fluoro-1H-indol-1-yl)piperidin-1-yl)methyl)piperidin-1-yl)-3-fluorobenzamide] | ≥ 80% | ≥ 80% |
| COc1cc(O[C@H]2C(C)(C)[C@H](NC(=O)c3ccc(N4CCC(CN5CCC(n6ncc7c(N8CCC(=O)NC8=O)cccc76)CC5)CC4)cc3)C2(C)C)ccc1C#N [Example 15, N-((1r,3r)-3-(4-Cyano-3-methoxyphenoxy)-2,2,4,4-tetramethylcyclobutyl)-4-(4-((4-(4-(2,4-dioxotetrahydropyrimidin-1(2H)-yl)-1H-indazol-1-yl)piperidin-1-yl)methyl)piperidin-1-yl)benzamide] | ≥ 80% | ≥ 80% |
| COc1cc(O[C@H]2C(C)(C)[C@H](NC(=O)c3ccc(N4CCC(CN5CCC(n6ccc7c(N8CCC(=O)NC8=O)cccc76)CC5)CC4)cc3)C2(C)C)ccc1C#N [Example 16, N-((1r,3r)-3-(4-Cyano-3-methoxyphenoxy)-2,2,4,4-tetramethylcyclobutyl)-4-(4-((4-(4-(2,4-dioxotetrahydropyrimidin-1(2H)-yl)-1H-indol-1-yl)piperidin-1-yl)methyl)piperidin-1-yl)benzamide] | ≥ 80% | ≥ 80% |
